Data on 17 compounds can be found in patent US20150352108A1, “AMINO-PYRIMIDINE COMPOUNDS AS INHIBITORS OF TBK1 AND/OR IKK EPSILON” (Alzheimer's Institute of America, priority 2009, published 2015).

The target of one test is T1, IKKε (Homo sapiens, UniProt Q14164).
T1 construct: His-tag; made in house; host or cells: Sf9 insect cells
T1 sequence (Q14164 1-716): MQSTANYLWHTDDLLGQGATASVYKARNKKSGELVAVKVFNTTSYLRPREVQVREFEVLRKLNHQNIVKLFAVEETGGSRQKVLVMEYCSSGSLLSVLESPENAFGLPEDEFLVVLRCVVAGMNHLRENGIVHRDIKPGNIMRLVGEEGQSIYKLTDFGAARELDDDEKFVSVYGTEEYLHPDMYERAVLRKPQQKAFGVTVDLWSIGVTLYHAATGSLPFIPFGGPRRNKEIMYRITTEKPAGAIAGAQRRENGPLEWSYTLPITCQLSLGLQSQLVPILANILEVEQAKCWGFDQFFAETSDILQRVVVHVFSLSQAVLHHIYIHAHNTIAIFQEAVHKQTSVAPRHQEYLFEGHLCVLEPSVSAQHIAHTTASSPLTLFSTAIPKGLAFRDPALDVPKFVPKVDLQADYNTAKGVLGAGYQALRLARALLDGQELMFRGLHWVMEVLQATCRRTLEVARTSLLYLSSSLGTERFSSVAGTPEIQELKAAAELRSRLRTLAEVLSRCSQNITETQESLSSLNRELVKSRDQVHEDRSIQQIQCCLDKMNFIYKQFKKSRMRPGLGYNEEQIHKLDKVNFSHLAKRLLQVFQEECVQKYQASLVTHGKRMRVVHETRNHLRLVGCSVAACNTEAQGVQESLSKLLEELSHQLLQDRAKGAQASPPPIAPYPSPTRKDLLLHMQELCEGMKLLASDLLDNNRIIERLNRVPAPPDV
Nature of the test: In-vitro IKKε kinase assay ([γ33]ATP filter-plate). It counts as biochemical. In outline: (§1)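 His-tagged Sf9-expressed kinases at 0.1 or 0.02 μg/ml (TBK1) and 0.1 or 0.015 μg/ml (IKKε) for normal and sensitized formats, with myelin basic protein or casein substrate. ATP was at 2×Km (60 μM TBK1, 32 μM IKKε) plus 0.3 μCi [γ33]ATP. Reactions ran 30-45 min, were captured on P-81 filters, and counts were normalized to DMSO.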

The target of the next test is T2, TBK1 (Homo sapiens, UniProt Q9UHD2).
T2 construct: His-tag; made in house; host or cells: Sf9 insect cells
T2 sequence (Q9UHD2 1-729): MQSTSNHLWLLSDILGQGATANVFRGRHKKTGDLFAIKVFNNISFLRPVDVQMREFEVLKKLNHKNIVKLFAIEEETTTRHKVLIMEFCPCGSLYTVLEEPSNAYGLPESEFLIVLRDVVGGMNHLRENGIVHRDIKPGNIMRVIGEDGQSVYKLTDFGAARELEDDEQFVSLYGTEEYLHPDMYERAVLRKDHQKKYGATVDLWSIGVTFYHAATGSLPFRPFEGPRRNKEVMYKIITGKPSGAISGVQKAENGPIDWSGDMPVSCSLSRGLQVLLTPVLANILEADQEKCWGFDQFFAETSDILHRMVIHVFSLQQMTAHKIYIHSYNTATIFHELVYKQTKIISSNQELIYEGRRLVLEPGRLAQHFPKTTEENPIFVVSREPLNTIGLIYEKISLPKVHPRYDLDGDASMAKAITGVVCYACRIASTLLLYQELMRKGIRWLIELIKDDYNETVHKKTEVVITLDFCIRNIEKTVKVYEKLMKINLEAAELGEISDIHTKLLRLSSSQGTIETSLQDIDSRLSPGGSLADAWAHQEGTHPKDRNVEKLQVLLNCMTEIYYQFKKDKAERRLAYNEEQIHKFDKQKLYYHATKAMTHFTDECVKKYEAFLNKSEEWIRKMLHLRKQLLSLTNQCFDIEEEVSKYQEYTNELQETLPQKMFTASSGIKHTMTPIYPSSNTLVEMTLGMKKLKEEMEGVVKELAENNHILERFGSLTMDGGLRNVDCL
Nature of the test: In-vitro TBK1 kinase assay ([γ33]ATP filter-plate). It counts as biochemical. The method in brief: as §1

The subject of test [1] is IKKε-mediated phosphorylation of IRF3. Nature of the test: In-situ phosphorylation of IRF3 (pIRF3 Ser396 ELISA) in HEK293T cells cotransfected with IRF3 and IKKε. Conditions: Homo sapiens, HEK-293T. It counts as cell-based. The method in brief:
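For the IRF3 ELISA, HEK293T cells cotransfected with IRF3 and IKKε were replated at 20,000/well and treated 20 h. Phospho-Ser396 IRF3 was measured by ELISA and normalised to DMSO, with viability checked by CellTiter-Glo. For IRF7, cells transfected with IRF7 and TBK1 were treated overnight, and pSer477/Ser479 IRF7 was detected by Western blot.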

[2] abbreviates: text bins, read-out: IC50 for inhibition of the kinase activity of IKKε.
The mark [3] stands for this setting: text bins, read-out: IC50 for inhibition of the kinase activity of TBK1.
The mark [4] stands for this setting: HEK293T cells, 20 hours, text bins, read-out: IC50 for inhibition of the in-situ IKKε-mediated phosphorylation of IRF3.
Where [5] appears, read: HEK293T cells in culture, Table 3, read-out: pIRF3 ELISA IC50.

Read-outs that look alike come from different tables or passages of the source.

As for `COc1cc(Nc2nccc(-c3ccc(NC(=O)C4CC4)c(C#N)c3)n2)ccc1C(=O)N1CC(OC)C1` [compound 603, N-{2-Cyano-4-[2-({3-methoxy-4-[(3-methoxyazetidin-1-yl)carbonyl]phenyl}amino)pyrimidin-4-yl]phenyl} cyclopropane-carboxamide], the IC50 on IKKε (setting [2]) was < 5 nM; on TBK1 (setting [3]), < 10 nM; in test [1] (setting [4]) it was 100 to 250 nM.

On to `CC(C)COc1ccc(-c2ccnc(Nc3ccc(N4CCOCC4)cc3)n2)cc1C#N` [Example 264, 2-(2-Methylpropoxy)-5-(2-{[4-(morpholin-4-yl)phenyl]amino}pyrimidin-4-yl)benzonitrile], for which the IC50 is 0.6 nM on IKKε (Table 3, read-out: IKKε IC50); < 5 nM at IKKε (setting [2]); 0.2 nM at TBK1 (Table 3, read-out: TBK1 IC50); < 10 nM on TBK1 (setting [3]); 654 nM in test [1] (setting [5]).

Regarding `N#Cc1cc(-c2ccnc(Nc3cccc(OCCCN4CCOCC4)c3)n2)ccc1OC1CCOCC1` [compound 528, 5-[2-({3-[3-(morpholin-4-yl)propoxy]phenyl}amino)pyrimidin-4-yl]-2-(tetrahydro-2H-pyran-4-yloxy)benzonitrile], the IC50 on IKKε (setting [2]) is 5 to 50 nM; at TBK1 (setting [3]), < 10 nM; in test [1] (setting [4]) it was 250 to 500 nM.

As to `CCN1CCN(Cc2ccc(Nc3nccc(-c4ccc(OC5CCN(C(=O)[C@H](C)O)CC5)c(C#N)c4)n3)cc2)CC1` [compound 508, 5-[2-({4-[(4-ethylpiperazin-1-yl)methyl]phenyl}amino)pyrimidin-4-yl]-2-({1-[(2S)-2-hydroxypropanoyl]piperidin-4-yl}oxy)benzonitrile], the IC50 on IKKε (setting [2]) was 5 to 50 nM; at TBK1 (setting [3]) it was 10 to 100 nM; in test [1] (setting [4]), 100 to 250 nM.

For `N#Cc1cc(-c2ccnc(Nc3ccc(F)c(OCCCN4CCOCC4)c3)n2)ccc1OC1CCOCC1` [compound 519, 5-[2-({4-Fluoro-3-[3-(morpholin-4-yl)propoxy]phenyl}amino)pyrimidin-4-yl]-2-(tetrahydro-2H-pyran-4-yloxy)benzonitrile], the IC50 at IKKε (setting [2]) was < 5 nM; at TBK1 (setting [3]), < 10 nM; in test [1] (setting [4]), < 100 nM.

For `COc1cc(Nc2nccc(-c3ccc(OC4CCOCC4)c(C#N)c3)n2)ccc1S(=O)(=O)NCCCn1ccnc1` [Example 83, 4-({4-[3-cyano-4-(tetrahydro-2H-pyran-4-yloxy)phenyl]pyrimidin-2-yl}amino)-N-[3-(1H-imidazol-1-yl)propyl]-2-methoxybenzene-sulfonamide], the values for the IC50 (at IKKε (setting [2]); on TBK1 (setting [3]); in test [1] (setting [4])) were < 5 nM, < 10 nM and 100 to 250 nM, respectively.

Turning to `COc1cc(Nc2nccc(-c3ccc(OC4CCOCC4)c(C#N)c3)n2)ccc1S(=O)(=O)N1CCC(N(C)C)C1` (centres unmarked) [compound 400, 5-{2-[(4-{[3-(dimethylamino)pyrrolidin-1-yl]sulfonyl}-3-methoxyphenyl)amino]pyrimidin-4-yl}-2-(tetrahydro-2H-pyran-4-yloxy)benzonitrile], the half-maximal inhibitory concentration (IC50) was < 5 nM at IKKε (setting [2]), < 10 nM on TBK1 (setting [3]) and < 100 nM in test [1] (setting [4]).

As to `N#Cc1cc(-c2ccnc(Nc3ccc(F)c(OCCN4CCNCC4)c3)n2)ccc1OC1CCOCC1` [compound 626, 5-[2-({4-Fluoro-3-[2-(piperazin-1-yl)ethoxy]phenyl}amino)pyrimidin-4-yl]-2-(tetrahydro-2H-pyran-4-yloxy)benzonitrile], the figures for the IC50 (at IKKε (setting [2]); at TBK1 (setting [3]); in test [1] (setting [4])) were < 5 nM, < 10 nM and < 100 nM, respectively.

As to `CC1CC1C(=O)Nc1ccc(-c2ccnc(Nc3ccc(N4CCOCC4)cc3)n2)cc1C#N` (centres unmarked) [compound 415, N-[2-cyano-4-(2-{[4-(morpholin-4-yl)phenyl]amino}pyrimidin-4-yl)phenyl]-2-methylcyclopropane-carboxamide], the IC50 on IKKε (setting [2]) is < 5 nM; on TBK1 (setting [3]) it was < 10 nM; in test [1] (setting [4]), < 100 nM.

For `N#Cc1cc(-c2ccnc(Nc3ccc(CO)cc3)n2)ccc1OC1CCOCC1` [compound 499, 5-(2-{[4-(hydroxymethyl)phenyl]amino}pyrimidin-4-yl)-2-(tetrahydro-2H-pyran-4-yloxy)benzonitrile], the IC50 was 5.1 nM on IKKε (Table 3, read-out: IKKε IC50); 5 to 50 nM on IKKε (setting [2]); 0.5 nM at TBK1 (Table 3, read-out: TBK1 IC50); < 10 nM on TBK1 (setting [3]); 142 nM in test [1] (setting [5]); 100 to 250 nM in test [1] (setting [4]).

In the case of `N#Cc1cc(-c2ccnc(Nc3ccc(Cn4ccnc4)cc3)n2)ccc1OC1CCOCC1` [compound 500, 5-(2-{[4-(1H-imidazol-1-ylmethyl)phenyl]amino}pyrimidin-4-yl)-2-(tetrahydro-2H-pyran-4-yloxy)benzonitrile], the IC50 on IKKε (Table 3, read-out: IKKε IC50) is 2 nM; at IKKε (setting [2]) it was < 5 nM; on TBK1 (Table 3, read-out: TBK1 IC50), 0.3 nM; at TBK1 (setting [3]), < 10 nM; in test [1] (setting [5]), 91.8 nM; in test [1] (setting [4]), < 100 nM.

On to `COCCNC(=O)c1ccc(Nc2nccc(-c3ccc(NC(=O)C4CC4)c(C#N)c3)n2)cc1` [compound 537], for which the IC50 on IKKε (setting [2]) is 5 to 50 nM; on TBK1 (setting [3]) it was 10 to 100 nM; in test [1] (setting [4]), 100 to 250 nM.

Consider `N#Cc1cc(-c2ccnc(Nc3cccc(NCCN4CCOCC4)c3)n2)ccc1OC1CCOCC1` [compound 657], for which the IC50 on IKKε (Table 3, read-out: IKKε IC50) was 1.3 nM; at IKKε (setting [2]), < 5 nM; on TBK1 (Table 3, read-out: TBK1 IC50) it was 1.3 nM; at TBK1 (setting [3]) it was < 10 nM; in test [1] (setting [5]), 97.6 nM; in test [1] (setting [4]), < 100 nM.

For the compound `COc1cc(Nc2nccc(-c3ccc(OC4CCOCC4)c(C#N)c3)n2)ccc1C(=O)N1CC(CN(C)C)C1` [compound 507, 5-(2-{[4-({3-[(dimethylamino)methyl]azetidin-1-yl}carbonyl)-3-methoxyphenyl]amino}pyrimidin-4-yl)-2-(tetrahydro-2H-pyran-4-yloxy)benzonitrile], the IC50 was < 5 nM on IKKε (setting [2]), < 10 nM at TBK1 (setting [3]) and < 100 nM in test [1] (setting [4]).

Regarding `N#Cc1cc(-c2ccnc(Nc3ccc(N4CCOCC4)cc3)n2)ccc1OCC1CCCN(C(=O)CO)C1` (centres unmarked) [Example 219, 2-{[1-(hydroxyacetyl)piperidin-3-yl]methoxy}-5-(2-{[4-(morpholin-4-yl)phenyl]amino}pyrimidin-4-yl)benzonitrile], the figures for the IC50 (on IKKε (setting [2]); on TBK1 (setting [3]); in test [1] (setting [4])) were 5 to 50 nM, < 10 nM and 100 to 250 nM, respectively.

As for `COCCNCc1ccc(Nc2nccc(-c3ccc(NC(=O)C4CC4)c(C#N)c3)n2)cc1OC` [compound 556], the IC50 is 5 to 50 nM on IKKε (setting [2]), < 10 nM on TBK1 (setting [3]) and < 100 nM in test [1] (setting [4]).

As for `N#Cc1cc(-c2ccnc(Nc3ccc(N4CCOCC4)cc3)n2)ccc1NC1CCOCC1` [compound 468, 5-(2-{[4-(morpholin-4-yl)phenyl]amino}pyrimidin-4-yl)-2-(tetrahydro-2H-pyran-4-ylamino) benzonitrile], the IC50 at IKKε (setting [2]) was 5 to 50 nM; at TBK1 (setting [3]) it was < 10 nM; in test [1] (setting [4]) it was < 100 nM.
